Data published in BindingDB's records for patent US20230365554 (The Broad Institute, 2023).

Legend:
[1] = molecular target: T1, Casein kinase I isoform alpha (Homo sapiens, UniProt P48729); experiment: CSNK1A1 Assay 2
Method: CSNK1A1-inhibitory activity of compounds of the present invention in presence of 1 μM adenosine-tri-phosphate (ATP) was quantified employing the CSNK1A1 assay as described in the following paragraphs. In essence, the enzyme activity is measured by quantification of the adenosine-di-phosphate (ADP), which is generated as a co-product of the enzyme reaction, via the ADP-Glo Kinase Assay kit from the company Promega. This detection system works as follows: In a first step the ATP not consumed in the kinase reaction is quantitatively converted to cAMP employing an adenylate cyclase ( ADP-Glo-reagent ), then the adenylate cyclase is stopped and the ADP generated in the kinase reaction converted to ATP which generates in a luciferase-based reaction a glow-luminescence signal ( Kinase Detection Reagent ). Recombinant fusion protein of N-terminal Glutathion-S-Transferase (GST) and full-length human CSNK1A1, expressed by baculovirus infected insect cells and purified via Glutathion affinity chromatography, was purchased from Life Technologies (product no. PV4174) and used as enzyme. As substrate for the kinase reaction the biotinylated peptide biotin-Ahx-KRRRAL-pS-VASLPGL (C-terminus in amide form) was used which can be purchased e.g. from the company Biosyntan (Berlin-Buch, Germany).For the assay 50 nl of a 100 fold concentrated solution of the test compound in DMSO was pipetted into a white 1536-well microtiter plate (Greiner Bio-One, Frickenhausen, Germany), 2 μL of a solution of CSNK1A1 in aqueous assay buffer [50 mM HEPES pH 7.5, 10% (v/v) glycerol, 10 mM MgCl2, 50 mM NaCl, 1 mM dithiothreitol, 0.01% (w/v) bovine serum albumin, 0.01% (v/v) Triton X-100] were added and the mixture was incubated for 15 min at 22 C. to allow pre-binding of the test compounds to the enzyme before the start of the kinase reaction. […]

[2] = molecular target: Casein kinase I isoform delta (Homo sapiens, UniProt P48730); experiment: CSNK1D Assay
Method: CSNK1D-inhibitory activity of compounds of the present invention in presence of 1 μM adenosine-tri-phosphate (ATP) was quantified employing the CSNK1D assay as described in the following paragraphs. In essence, the enzyme activity is measured by quantification of the adenosine-di-phosphate (ADP), which is generated as a co-product of the enzyme reaction, via the ADP-Glo Kinase Assay kit from the company Promega. This detection system works as follows: In a first step the ATP not consumed in the kinase reaction is quantitatively converted to cAMP employing an adenylate cyclase ( ADP-Glo-reagent ), then the adenylate cyclase is stopped and the ADP generated in the kinase reaction converted to ATP which generates in a luciferase-based reaction a glow-luminescence signal ( Kinase Detection Reagent ).Recombinant fusion protein of N-terminal Glutathion-S-Transferase (GST) and full-length human CSNK1D, expressed by baculovirus infected insect cells and purified via Glutathion affinity chromatography, was purchased from Life Technologies (product no. PV3665) and used as enzyme. […]

[3] = molecular target: T1, Casein kinase I isoform alpha; experiment: CSNK1A1 Assay 1
Method: CSNK1A1-inhibitory activity of compounds of the present invention in presence of 1 μM adenosine-tri-phosphate (ATP) was quantified employing the CSNK1A1 assay as described in the following paragraphs. In essence, the enzyme activity is measured by quantification of the adenosine-di-phosphate (ADP), which is generated as a co-product of the enzyme reaction, via the ADP-Glo Kinase Assay kit from the company Promega. This detection system works as follows: In a first step the ATP not consumed in the kinase reaction is quantitatively converted to cAMP employing an adenylate cyclase ( ADP-Glo-reagent ), then the adenylate cyclase is stopped and the ADP generated in the kinase reaction converted to ATP which generates in a luciferase-based reaction a glow-luminescence signal ( Kinase Detection Reagent ).Recombinant fusion protein of N-terminal Glutathion-S-Transferase (GST) and full-length human CSNK1A1, expressed by baculovirus infected insect cells and purified via Glutathion affinity chromatography, was purchased from Life Technologies (product no. PV4174) and used as enzyme. […] Subsequently 2.5 μL of the kinase detection reagent (1.2 fold more concentrated than recommended by the producer) were added, the resulting mixture was incubated at 22° C. for 1 h and then the luminescence measured with a suitable measurement instrument (e.g. Viewlux from Perkin-Elmer). […]

T1 sequence (P48729 whole entry, canonical isoform): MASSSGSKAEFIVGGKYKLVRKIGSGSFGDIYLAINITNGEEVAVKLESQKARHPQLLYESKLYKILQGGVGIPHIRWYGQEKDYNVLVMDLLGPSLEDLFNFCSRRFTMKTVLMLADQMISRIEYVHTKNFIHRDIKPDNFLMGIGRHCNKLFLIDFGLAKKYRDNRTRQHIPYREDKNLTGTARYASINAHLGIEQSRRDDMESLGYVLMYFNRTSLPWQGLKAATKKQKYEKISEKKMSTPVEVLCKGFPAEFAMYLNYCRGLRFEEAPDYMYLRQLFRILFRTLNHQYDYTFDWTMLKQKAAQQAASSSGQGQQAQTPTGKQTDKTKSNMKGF
Sequence of Casein kinase I isoform delta (P48730 whole entry, canonical isoform): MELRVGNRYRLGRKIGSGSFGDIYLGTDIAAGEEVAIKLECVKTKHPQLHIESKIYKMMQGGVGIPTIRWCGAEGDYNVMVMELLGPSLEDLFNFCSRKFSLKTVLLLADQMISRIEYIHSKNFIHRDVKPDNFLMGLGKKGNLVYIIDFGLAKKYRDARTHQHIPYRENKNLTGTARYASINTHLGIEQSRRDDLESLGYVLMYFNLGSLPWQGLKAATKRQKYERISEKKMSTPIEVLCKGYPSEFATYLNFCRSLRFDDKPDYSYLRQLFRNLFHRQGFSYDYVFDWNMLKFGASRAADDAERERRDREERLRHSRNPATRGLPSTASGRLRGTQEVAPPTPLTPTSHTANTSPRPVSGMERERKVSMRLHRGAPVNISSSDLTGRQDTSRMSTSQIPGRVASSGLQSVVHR

SMILES | IC50 [1] | IC50 [2] | IC50 [3]
CC1CN(C)C(=O)c2c1[nH]c(-c1ccnc(NC(=O)C(CC(F)F)c3ccc(F)cc3)c1)c2Nc1ccccc1 (mixture of isomers) [US20230365554, Example 10] | 5.4 nM | 9.1 nM | 
CC(=O)Nc1cc(-c2[nH]c3c(c2Nc2ccccc2)C(=O)N(C)CC3)ccn1 | 11 nM |  | 
Cc1cn(C)c(=O)c2c(Nc3ccccc3)c(-c3ccnc(NC(=O)Cc4ccc(F)cc4)c3)[nH]c12 [US20230365554, Example 38] | 4.2 nM | 6.6 nM | 
CN1CCc2[nH]c(-c3ccnc(NC(=O)[C@@H]4C[C@H]4F)c3)c(Nc3ccccc3)c2C1=O (relative stereo) [WO 2016/120196, Example 25] |  |  | 63 nM
